The text below walks through data of patent US8093393B2, “Cationic ceramides, and analogs thereof, and their use for preventing or treating cancer” (MUSC Foundation for Research Development, priority 2004, dated 2012).

≈ marks a conversion by molar mass, not a printed value. Read-outs that look alike come from different tables or passages of the source.

The nature of data set [1]: Solubility of ceramides and ceramidoids in water. The following applies: 37° C.
Data set [2] relates to isolated rat liver mitochondria. As to the kind of experiment: Mitochondrial permeabilization (ΔΨ, large-amplitude swelling). The following applies: for IC50: read-out: IC50 of mitochondrial swelling, swelling 30 min after ceramide treatment.
Data set [3] has the same test system. The experiment in a line: Cytochrome C release from mitochondria. The following applies: 40 μM; for cytochrome C released from mitochondria: 20 minutes of incubation. It is filed as biochemical. On the procedure: FIGS. 20A and 20B. […] Two min after the addition of CSA and EGTA samples were collected and treated for cytochrome C analysis. Alamethicin (ALA, 7 μg/mg protein) was added as indicated to determine the full degree of permeabilization and maximum cytochrome C release. […] Total amount of cytochrome C is 1.95 μg/mg protein.
Cytochrome C release from mitochondria. Aliquots of mitochondrial suspension were taken as indicated in figure legends and centrifuged at 15,000 g for 3 min. The supernatant and mitochondrial pellet were frozen and stored at […]. Cytochrome C in supernatants and pellets was quantified using the Quantikine cytochrome C ELISA kit (R&D Systems, Minniapolis, Minn.).

In data set [4] the test system is MCF7 breast carcinoma cells. The experiment in a line: Cell proliferation and viability, Trypan blue exclusion assay. It is filed as cell-based. The following applies: for IC50: 48 h treatment, read-out: IC50, inhibitory effect on MCF7 cell growth. On the procedure:
FIGS. 5A-5F show the dose dependent effects of CCPS analogs on survival of MCF7 breast carcinoma cells in comparison to the activity of D-e-C6-ceramide, which is commonly used as a model of ceramide action. Cell proliferation and cell viability were determined by Trypan blue exclusion assay. These assays were performed using duplicate samples in two or three independent experiments.
Cell Proliferation: Cells were seeded into plates at a density of approx. 50% corresponding to 1×10^6 cells, in 10 ml of 10% FCS and after an over night incubation the cells were treated with LCL compounds at concentration 0-20 μM in ethanol (ethanol level was kept below 0.1%) and the changes in cell numbers after 48 h were determined and expressed as a percentage of the untreated controls.
Briefly, media was removed, cells were washed twice with PBS, detached using 1% Trypsin and centrifuged at 800 rpm. Cell pellets were resuspended in PBS and Trypan blue (Sigma Chemicals, St. Louis, Mo., USA) was added (1:1 dilution). Under light microscope, the percentage of unstained and stained cells was assessed.
To examine the anticancer activity of CCPS analogs of the invention, their inhibitory effect on MCF7 breast carcinoma cells were analyzed and compared to the activity of D-e-C6-ceramide, which is commonly used as a model of action for ceramides. Cell proliferation and cell viability were determined by Trypan blue exclusion assay.

Data set [5] relates to isolated rat liver mitochondria. As to the kind of experiment: Accumulation / binding in isolated mitochondria. On the procedure: FIG. 16. […] Bar 2 and 4 (+FCCP), ΔΨ was dissipated by addition of FCCP at 1 μM plus antimycin A at 0.5 μg/mg protein from the beginning of the experiment. Results are expressed as mean+SEM of n=3, *p=0.01 versus control.
FIG. 23. […] Trace 3 was corrected for the absorbance of TMRM.
Preparation of mitochondria from rat liver.
Mitochondrial incubation medium.
Analysis of ceramides by mass spectroscopy (MS).

Data set [6] deals with MCF7 cells.
Procedure: (§2) Dose-response curves of ceramides effect on viability of Hep G2 and MCF7 cells. Hep G2 and MCF7 cells were incubated at the condition described in Section 9.1. […] Cell viability was assessed 46 hours after addition of ceramides. Data are expressed as a mean+SEM of n=3.
(§3) Cell culture. Hep G2 cells (obtained from ATCC) were cultured in Minimum essential medium (Eagle) supplemented with 10% fetal bovine serum, 2 mM L-glutamine, non-essential amino acids, 1 mM sodium pyruvate, and 1.5 g/L sodium bicarbonate in humidified air (5% CO2) at 37° C. […] MCF7 cells (obtained from ATCC) were cultured in RPMI 1640 Medium supplemented with 10% fetal bovine serum and 2 mM glutamine in humidified air (5% CO2) at 37° C. All media were supplemented with 100 U/ml penicillin and 100 μg/ml streptomycin.
(§4) Measurement of cell viability. Hep G2 or MCF7 cells were plated at a density of 10^4 cells/well in 96-well plates in the medium described under Cell culture. After 24 hours of incubation, the cells were treated with ceramides for 46 hours in 2% fetal bovine serum medium. Cell viability was determined by MTT (3-[4,5-dimethylthiazol-2-yl]-2,5-diphenyl tetrasodium bromide) based assay according manufacture recommendation (Sigma, St. Louis, Mo.).
Another data set relates to UM-SCC-22A xenografts. The following applies: 40 mg/kg/each IP every 4 days for 20 days.
Data set [7] deals with UM-SCC-22A cells. As to the kind of experiment: MTT cell survival assay and isobologram studies. Format: cell-based, human. (Formazan colour is commonly taken as a measure of viable cells.)
Procedure: Human head and neck cancer cell lines UM-SCC-1 (retromolar trigone/floor of the mouth), UM-SCC-12 (primary tumor of larynx), and UM-SCC-22A cells were obtained from clinical samples. Cells were grown in DMEM containing 10% FCS and 1% penicillin/streptomycin at 37° C. in 5% CO2.
MTT cell survival assay and isobologram studies. The concentrations of agents that inhibited cell growth by 50% (IC50) were determined from cell survival plots obtained by MTT. Triplicate wells were used for each treatment. The final concentration of DMSO (a solvent for conventional ceramides, GMZ and DOX) in the growth medium was less than 0.1% (v/v) which has no effect on cell growth and survival. Pyridinium ceramides were dissolved in sterile water or growth medium. In short, after cells (5-10×10^3/well) were seeded in 96-well-plates for 24 hr, they were treated with increasing concentrations of ceramide analogs for an additional 48 or 96 hr. For combination treatments, ceramides and chemotherapeutic agents (gemcitabine (GMZ) or doxorubicin (DOX)) were added to the growth medium simultaneously during treatment. Isobologram plots were then constructed using IC50 values of the two agents alone or in combination obtained from MTT assays. A straight line joining points on x- and y-axes represent the IC50 concentrations of two agents, and the points representing the IC50 concentrations of the combination of the two agents are represented as scatter plots on the same graphs. In general, the points that fall within the left of the straight line indicate synergism. The experiments were performed as triplicates in at least 3 independent experiments.
Human head and neck cancer cell lines UM-SCC-1 (retromolar trigone/floor of the mouth), UM-SCC-14A (SCC of anterior floor of the mouth), and UM-SCC-22A (SCC of hypopharynx) cells were obtained. Cells were grown in DMEM containing 10% FCS and 1% penicillin/streptomycin at 37° C. in 5% CO2.
MTT cell survival assay and isobologram studies. The concentrations of agents that inhibited cell growth by 50% (IC50) were determined from cell survival plots obtained by MTT assays. […] In general, the points that fall within the left of the straight line indicate synergism. The experiments were performed as triplicates in at least 3 independent experiments. Error bars represent standard deviations.
A further data set concerns telomerase. The experiment in a line: Telomerase activity (TRAP) in treated cells. Format: cell-based, human. The following applies: UM-SCC-22A, 48 hr, C6-Pyr-Cer 1 μM, GMZ 100 nM. On the procedure: (§1) FIGS. 13A to 13B. Roles of CCPS on cell cycle profiles, and telomerase activity of UM-SCC-22A cells. (FIG. 13A) The effects of D-e-C6—, D-e-C12- and L-th-C12-pyridinium ceramides (at 1 μM for 48 hr) on cell cycle profiles of UM-SCC-22A cells were determined and compared to that of untreated cells using flow cytometry as described in Materials and Methods. (FIG. 13B) The effects of 0, 100, 250 and 500 nM L-t-C6-Pyr-Cer (LCL-124) (lanes 1-4, respectively) at 96 hr treatment in UM-SCC-22A cells on telomerase activity was assessed using TRAP assay. Lanes 5 and 6 contain positive (+) and negative (−) controls. To examine whether C6-Pyr-Cer inhibits telomerase activity directly, cell extracts (as shown in lane 1) were incubated in the presence of various concentrations of L-th-C6-Pyr-ceramide (LCL-124; 10, 20 and 100 μM) and telomerase activity was determined using TRAP assay (lanes 7-9, respectively). The presence of non-telomeric 36 bp internal standard (IS) in the TRAP assay serves as a control for polymerase chain reaction, and used for quantitation/normalization of the activity of telomerase. The results shown are representative of at least two independent experiments.
FIGS. 14A to 14D. […] (FIG. 14A) The effects of various chemotherapeutic agents on cell growth in UM-SCC-22A cells were determined using MTT assays, and the IC50 concentrations of each agent were determined from cell growth plots as described. (FIG. 14B) The synergistic effects of DOX and L-th-C6-Pyr-Cer (LCL-124) on cell growth were assessed using isobologram studies as described in Materials and Methods. (FIG. 14C) The effects of 1 μM L-th-C6-Pyr-Cer (LCL-124) or cetyl-pyridinium-bromide, without ceramide conjugate (used as a control) on the growth inhibition potential of GMZ in UM-SCC-22A cells were determined using MTT assays. (FIG. 14D) The effects of GMZ (100 nM), L-th-C6-Pyr-Cer (LCL-124; 1 μM) or GMZ and L-th-C6-Pyr-Cer (LCL-124) (100 nM and 1 μM, respectively) on telomerase activity in UM-SCC-22A cells at 48 hr were examined using TRAP assay, and compared to that of untreated controls (lanes 2, 3, 4 and 1, respectively). The data shown are representative of at least two independent experiments performed in triplicate samples. Standard deviations in each sample were between 0.1-0.5.
Determination of telomerase activity. Telomerase activity in cell extracts was measured by the PCR-based telomere repeat amplification protocol (TRAP) using TRAPeze kit (Intergen, Gaithersburg, Md.) which includes a 36-bp internal control to allow quantification of activity. In short, the intensity of telomere-specific DNA bands, measured using Quantity One (BioRad) software, were normalized to the intensity of internal control bands for each sample on polyacrylamide gels for quantification.

For data set [8] the following is noted: mice; cited from earlier work.
The subject of the next data set is telomeres. The experiment in a line: Telomere length (TRF) in tumor tissues. Format: in vivo, human. The following applies: versus untreated controls. The source says:
FIG. 29. […] In (B), DNA samples obtained from tumors treated with GMZ (G), L-t-C6-Pyr-Cer (Cer), and the combination of L-t-C6-Pyr-Cer with GMZ (G/C, lanes 2-4, respectively) were compared to that of untreated (U) tumors (lane 1). Lanes 5 and 6 contain DNA samples with low (L) and high (H) molecular weight (3.9 and 10.2 kb, respectively) telomeres. In (D) The levels of hTERT protein in samples obtained from tumors treated with GMZ (G), L-t-C6-Pyr-Cer (Cer), and the combination of L-t-C6-Pyr-Cer with GMZ (G/Cer, lanes 2-4, respectively) were determined by Western blot analysis using rabbit polyclonal anti-hTERT antibody, and compared to that of untreated (U) tumors (lane 1). Lanes 5 and 6 contain samples from telomerase positive (+) and negative (−) extracts. Beta-actin levels of these samples were used as loading controls (lanes 1-6, lower panel). The data shown are representative of two independent trials, and error bars represent standard deviations.
Analysis of telomere length in tumor tissues. The measurement of telomere length was performed in total genomic DNA samples isolated from tumor tissues of the SCID mice using Telomere Restriction Fragment (TRF) Length measurement kit (Roche) by Southern blotting as described in Sundararaj, et al. J Biol Chem 2004; 279:6152-6162.

Data set [9] concerns UM-SCC-22A cells. The experiment in a line: Cell cycle profiles by flow cytometry. Conditions: 1 μM, 48 hr. It is filed as cell-based, human. The method, then:
as §1
Analysis of cell cycle profiles. The effects of pyridinium ceramides on the cell cycle profiles of A549 cells at 24 hr were analyzed in the presence of DNase-free RNase and propidium iodine (PI) by flow cytometry as described in Ogretmen et al., J. Biol. Chem. 2001; 276: 24901-24910, which is incorporated herein by reference in its entirety. Untreated cells were used as controls.
Analysis of cell cycle profiles. […] Untreated cells were used as controls.
For orientation: A flow cytometer gives signals particle by particle.

Data set [10] deals with MCF7 cells. Conditions: 5 μM.
Procedure: Data are expressed as changes in the total ceramide level (pmol) or individual ceramide components (pmol) normalized to the phospholipid level, Pi (nmol) present in the Bligh & Dyer lipid extract and shown as changes to the control cells: Ceramide/Pi[pmol/nmol] (% Control).
Endogenous ceramide: ESI/MS/MS analysis of endogenous sphingoid bases, sphingoid base 1-phosphates and ceramide species was performed on a Thermo Finnigan TSQ 7000 triple quadrupole mass spectrometer, operating in a Multiple Reaction Monitoring (MRM) positive ionization mode using modified version (Bielawski, J. et al., SERMACS 2003, poster #68) of the protocol previously published (Sullard, M. C., Merrill, A. H., Sciences stke 2001/67/p 11).
Briefly, for the indicated points, media was removed, cells were washed twice with PBS, scraped into cold PBS (2×1.0 ml), transferred to glass vials and centrifuged for 5 min at 800 rpm. Cell pellets corresponding to ˜1×10^6 cells, were fortified with the internal standards IS (C17 base D-erythro-sphingosine: 17Sph, C17 sphingosine-1-phosphate: 17Sph-1P, N-palmitoyl-D-erythro-C13 sphingosine: 13CC16-Cer and N-heptadecanoyl-D-erythro-C17shingosine: 17CC17-Cer) and extracted (2×2 ml) into a one-phase solvent system with ethyl acetate/iso-propanol/water (60/30/10 v/v). One ml of this extract was used for Pi determination after lipid re-extraction by the Bligh and Dyer method. Remaining lipid extract was evaporated, reconstituted in 100 μl of methanol, and samples were injected on the Surveyor/TSQ 7000 LC/MS system and gradient eluted from the BDS Hypersil C8, 150×3.2 mm, 3 μm particle size column, with 1.0 mM methanolic ammonium formate/2 mM aqueous ammonium formate mobile phase system. […]
Quantitative analysis was based on the calibration curves generated by spiking an artificial matrix with the known amounts of the target analyte synthetic standards and an equal amount of the internal standards (IS). […]
Final data were adjusted and results were expressed as level of particular sphingolipids/Pi (pmol/nmol).

Procedure for Hep G2 cells: as §2, §3, §4
Procedure for UM-SCC-22A xenografts: A) Upper Panel: In vivo therapeutic efficacy of L-t-C6-Pyr-Cer in combination with GMZ was determined in SKID mice harboring the UM-SCC-22A xenografts implanted in both flanks. The animals were treated with L-t-C6-Pyr-Cer and GMZ at 40 mg/kg/each every 4 days for 20 days. […] In these experiments, each group contained 6 mice, harboring 12 tumors, in this study. Error bars represent standard deviations, and p values were calculated. […] C) The blood counts, the levels of serum enzymes, and electrolytes were analyzed in response to L-t-C6-Pyr-Cer alone or in combination with GMZ in SKID mice.
After tumors were grown to about 200-400 mm^3 (about two weeks after implantation), the mice were treated without or with chemotherapeutic agents with intraperitoneal (IP) injection (alone or in combination) at half of their maximum tolerated doses (MTD) every 4 days for 20 days. Tumor volumes and the weights of the animals were measured before each treatment, and tumor sizes were measured at the end of the study. The endpoint was tumor rate of growth and/or tumor volume, which was calculated using the formula: length×width^2×0.52. Each experiment included at least 6 mice (which harbored two SCC tumors in flanks) per each treatment, and experiments were done at least in two independent trials.

In general, IC50 refers to the concentration that gives 50% inhibition. In general, Solubility refers to the dissolved amount per volume that the medium holds. A high value points to a readily soluble substance. On to `CCCCCCCCCCCCC/C=C/[C@@H](O)[C@H](CO)NC(=O)CCCCC` [C6-Cer, D-erythro-C6-ceramide, reference compound], for which the IC50 was roughly 31 µM in the data set on Hep G2 cells, greater than 60 µM in [2], 15 µM in data set [4] and roughly 16 µM in the data set on MCF7 cells [6]. In addition, the “Solubility at 37° C.” value in data set [1] amounted to 1.4 µg/mL (≈ 3.52 µM). Further, the “Solubility at 37° C. ([mM])” value in [1] is “(0.0036) mM”. Further, in data set [3], the “cytochrome C released from mitochondria” value is on record as “no effect on cytochrome C release”. Also, in data set [4] (10 μM, 48 h), the “inhibition of MCF7 cell growth” value is given as roughly 35%. In addition, the “suppression of accumulation by dissipation of ΔΨ (antimycin plus FCCP)” value in data set [5] (10 μM) is reported as “insensitive to dissipation of ΔΨ”. The molecule also yielded an association with mitochondria in [5] (10 μM, energized mitochondria) of 79.3%. For the same molecule, the binding to mitochondria in [5] (30 μM, at 4 min) is on record as 5±0.8 nmol/mg protein.
As to `Nc1ccn([C@@H]2O[C@H](CO)[C@@H](O)C2(F)F)c(=O)n1` [GMZ, gemcitabine, reference compound], the “inhibition of HNSCC tumor growth” value in the data set with UM-SCC-22A xenografts is “some inhibition of HNSCC tumor growth”. For the same molecule, the IC50 in the data set on UM-SCC-22A cells [7] (Homo sapiens, read-out: IC50 of chemotherapeutic agents) lay in the range of 0.1 to 0.25 µM. In the data set on telomerase, the “inhibition of telomerase activity” value stood at 50%. Besides, the “MTD of reference drugs (known)” value in [8] is reported as 80 mg/kg. In addition, in the data set on telomeres, the “reduction of TRF (telomere) length in tumors” value is listed as roughly 200 bp.
For the molecule “D-erythro-2-N-[6′-(1″-Pyridinium)-hexanoyl]-sphingosine Bromide [LCL29]”, the IC50 was roughly 8 µM in the data set on Hep G2 cells; roughly 1 µM in the data set with UM-SCC-22A cells [7] (UM-SCC-22A, 48 hr, read-out: IC50, cell growth); roughly 0.3 µM in the data set on UM-SCC-22A cells [7] (UM-SCC-22A, 96 hr, DMEM, listed as D-e-C6-Pyr-Cer, read-out: IC50, cell growth); roughly 27.5 µM in data set [2]; 1 µM in data set [4]; roughly 2 µM with MCF7 cells [6]. In the data set on UM-SCC-22A cells [9], the cell cycle profile result is reported as “significant increase in the population of cells in G0/G1”. In [2] (40 μM), the “effect on ΔΨ and mitochondrial swelling (in words)” value is “complete dissipation of ΔΨ”. The “fold decrease in cytochrome C release with FCCP plus antimycin A” value in data set [3] (20 minutes) is given as roughly 3 fold. The “cytochrome C released from mitochondria” value in data set [3] is recorded as “about 40%”. Further, the “inhibitory effect on MCF7 cell growth (in words)” value in data set [4] (48 h) is “caused inhibitory effect on MCF7 cell growth”. For the same molecule, in the data set on MCF7 cells [10], the “effect on endogenous ceramide” value was “caused generation of an “early Cer””.
